Test results reported in US20230339952A1, “MACROCYCLIC HETEROCYCLES AND USES THEREOF” (Kumquat Biosciences Inc., priority 2022, published 2023).
Each block holds one molecule with its values, some of them ahead of it.

Assays:
[1] = molecular target: SOS1 (Homo sapiens (Human), UniProt Q07889); test: Ras-SOS interaction assay (HTRF), K-Ras G13D utilized; format: binding; conditions: K-Ras G13D, read-out: SOS1 IC50
Description: For example, the equilibrium interaction of human SOS1 (hSOS1) with human wildtype Kras or K-Ras mutant (e.g., hK-Ras G12C mutant, or hK-Ras G12C) can be assessed as a proxy or an indication for a subject compound's ability to inhibit SOS. Detection of such interaction is achieved by measuring homogenous time-resolved fluorescence resonance energy transfer (HTRF) from (i) a fluorescence resonance energy transfer (FRET) donor (e.g., antiGST-Europium) that is bound to GST-tagged K-Ras G12C to (ii) a FRET acceptor (e.g., anti-6His-XL665) bound to a His-tagged hSOS1.
A Ras working solution is prepared in assay buffer containing typically 10 nM of the protein construct (e.g., GST-tagged hK-Ras G12C) and 2 nM of the FRET donor (e.g., antiGST-Eu(K) from Cisbio, France). A SOS1 working solution is prepared in assay buffer containing typically 10 nM of the protein construct (e.g., His-hSOS1) and 10 nM of the FRET acceptor (e.g., anti-6His-XL665 from Cisbio, France). An inhibitor control solution is prepared in assay buffer containing 10 nM of the FRET acceptor without the SOS1 protein.
A fixed reaction mixture with or without test compound is transferred into a 384-well plate. Ras working solution is added to all wells of the test plate. SOS1 working solution is added to all wells except for those that are subsequently filled with the inhibitor control solution. […] The ratiometric data (i.e., emission 2 divided by emission 1) is used to calculate IC50 values against SOS1 using GraphPad Prism (GraphPad software).

[2] = system: NCI-H1975 (ATCC CRL-5908) cell line comprising an EGFR T790M L858R double mutation; test: EGFR-SOS cellular inhibition assay (CellTiter-Glo cell proliferation); format: cell-based; conditions: Homo sapiens, 120 h; NCI-H1975 cell proliferation, approximately 5 days; read-out: H1975 IC50
Description: A CellTiter-Glo (CTG) luminescent based assay (Promega) is used to assess growth of the cells, as a measurement of the ability of the compounds herein to inhibit EGFR signaling in the cells. […] The day after plating, cells are treated with a dilution series (e.g., a 9 point 3-fold dilution series) of the compounds herein (e.g., approximately 125 μL final volume per well).

Chain of SOS1 (Q07889 564-1049): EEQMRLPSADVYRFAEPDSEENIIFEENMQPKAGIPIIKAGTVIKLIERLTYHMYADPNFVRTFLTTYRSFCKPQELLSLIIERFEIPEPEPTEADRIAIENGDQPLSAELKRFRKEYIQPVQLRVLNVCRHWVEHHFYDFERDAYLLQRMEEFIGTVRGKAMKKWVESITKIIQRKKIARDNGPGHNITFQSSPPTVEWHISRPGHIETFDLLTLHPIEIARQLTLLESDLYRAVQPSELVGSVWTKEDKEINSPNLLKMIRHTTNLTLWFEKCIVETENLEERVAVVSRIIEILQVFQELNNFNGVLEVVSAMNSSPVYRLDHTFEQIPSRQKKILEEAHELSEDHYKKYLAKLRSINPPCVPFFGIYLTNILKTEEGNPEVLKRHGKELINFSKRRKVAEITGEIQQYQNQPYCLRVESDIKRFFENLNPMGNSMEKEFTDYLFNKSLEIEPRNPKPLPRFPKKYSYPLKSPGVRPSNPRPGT

SMILES: C[C@H]1Nc2ncnc3c2cc(C2CCS(=O)(=O)CC2)c(=O)n3CCCC(=O)NCCN2CCC(CC2)C(F)(F)c2cccc1c2 [Compound 30, (4R)-6^6-(1,1-dioxidotetrahydro-2H-thiopyran-4-yl)-2,2-difluoro-4-methyl-6^7,6^8-dihydro-5,11-diaza-6(4,8)-pyrido[2,3-d]pyrimidina-1(4,1)-piperidina-3(1,3)-benzenacyclotridecaphane-6^7,10-dione]
- IC50 [1]: < 0.1 µM
- IC50 [2]: < 1 µM

SMILES: CC1CCCCCCn2c(=O)c(C3(C#N)CC3)cc3c(ncnc32)N[C@H](C)c2cccc(c2F)C(F)(F)C2CCN1CC2 (stereo partly drawn) [Compound 34, 1-((4R)-3^2,2,2-trifluoro-4,13-dimethyl-6^7-oxo-6^7,6^8-dihydro-5-aza-6(4,8)-pyrido[2,3-d]pyrimidina-1(4,1)-piperidina-3(1,3)-benzenacyclotridecaphane-6^6-yl)cyclopropane-1-carbonitrile]
- IC50 [1]: < 0.1 µM
- IC50 [2]: < 1 µM

SMILES: C[C@@H]1C(=O)NCCCCn2c(=O)c(C3(C#N)CC3)cc3c(ncnc32)N[C@H](C)c2cccc(c2)C(F)(F)C2CCN1CC2 [Compound 36, 1-((4R,13R)-2,2-difluoro-4,13-dimethyl-6^7,12-dioxo-6^7,6^8-dihydro-5,11-diaza-6(4,8)-pyrido[2,3-d]pyrimidina-1(4,1)-piperidina-3(1,3)-benzenacyclotridecaphane-6^6-yl)cyclopropane-1-carbonitrile]
- IC50 [1]: < 0.1 µM
- IC50 [2]: < 1 µM

SMILES: C[C@H]1Nc2ncnc3c2cc(N2CCS(=O)(=O)CC2)c(=O)n3CCCCCCCN2CCC(CC2)C(F)(F)c2cccc1c2F [Compound 38, (4R)-6^6-(1,1-dioxidothiomorpholino)-3^2,2,2-trifluoro-4-methyl-6^7,6^8-dihydro-5-aza-6(4,8)-pyrido[2,3-d]pyrimidina-1(4,1)-piperidina-3(1,3)-benzenacyclotridecaphan-6^7-one]
- IC50 [1]: < 0.1 µM
- IC50 [2]: < 1 µM

Second part, the molecule after the results:

- IC50 [1]: < 0.1 µM
- IC50 [2]: < 1 µM
SMILES: C[C@H]1Nc2ncnc3c2cc(C2CCS(=O)(=O)CC2)c(=O)n3Cc2cn(nn2)CCCCN2CCC(CC2)C(F)(F)c2cccc1c2 [Compound 40, (5R,Z)-3^6-(1,1-dioxidotetrahydro-2H-thiopyran-4-yl)-7,7-difluoro-5-methyl-3^7,3^8-dihydro-1^1H-4-aza-3(8,4)-pyrido[2,3-d]pyrimidina-8(4,1)-piperidina-1(4,1)-triazola-6(1,3)-benzenacyclododecaphan-3^7-one]

- IC50 [1]: < 0.1 µM
- IC50 [2]: < 1 µM
SMILES: C[C@H]1Nc2ncnc3c2cc(C2CCS(=O)(=O)CC2)c(=O)n3CCCN(C)C(=O)CCN2CCC(CC2)C(F)(F)c2cccc1c2 [Compound 41, (4R)-6^6-(1,1-dioxidotetrahydro-2H-thiopyran-4-yl)-2,2-difluoro-4,10-dimethyl-6^7,6^8-dihydro-5,10-diaza-6(4,8)-pyrido[2,3-d]pyrimidina-1(4,1)-piperidina-3(1,3)-benzenacyclotridecaphane-6^7,11-dione]

- IC50 [1]: < 0.1 µM
- IC50 [2]: < 1 µM
SMILES: C[C@H]1Nc2ncnc3c2cc(N2CCS(=O)(=O)CC2)c(=O)n3CCCCCCCN2CCC(CC2)C(F)(F)c2cccc1c2 [Compound 42, (4R)-6^6-(1,1-dioxidothiomorpholino)-2,2-difluoro-4-methyl-6^7,6^8-dihydro-5-aza-6(4,8)-pyrido[2,3-d]pyrimidina-1(4,1)-piperidina-3(1,3)-benzenacyclotridecaphan-6^7-one]

- IC50 [1]: < 0.1 µM
- IC50 [2]: < 1 µM
SMILES: C[C@H]1Nc2ncnc3c2cc(C2(C#N)CC2)c(=O)n3CCCCCCCN2CCC(CC2(C)C)C(F)(F)c2cccc1c2 (stereo partly drawn) [Compound 43, 1-((4R)-2,2-difluoro-1^2,1^2,4-trimethyl-6^7-oxo-6^7,6^8-dihydro-5-aza-6(4,8)-pyrido[2,3-d]pyrimidina-1(4,1)-piperidina-3(1,3)-benzenacyclotridecaphane-6^6-yl)cyclopropane-1-carbonitrile]
